Data on 2 compounds can be found in publication PMC12595434, “Development of retinoid nuclear receptor pathway antagonists through targeting aldehyde dehydrogenase 1A3” (iScience, 2025).

pIC50, pKd: −log10 of the molar value. Where two headings read alike, the source gives them in different places.

Data set [1] addresses T1, human ALDH1A2 (Homo sapiens, UniProt O94788).
T1 construct: made in house; host or cells: BL21-DE3 E. coli
T1 sequence (O94788 1-518): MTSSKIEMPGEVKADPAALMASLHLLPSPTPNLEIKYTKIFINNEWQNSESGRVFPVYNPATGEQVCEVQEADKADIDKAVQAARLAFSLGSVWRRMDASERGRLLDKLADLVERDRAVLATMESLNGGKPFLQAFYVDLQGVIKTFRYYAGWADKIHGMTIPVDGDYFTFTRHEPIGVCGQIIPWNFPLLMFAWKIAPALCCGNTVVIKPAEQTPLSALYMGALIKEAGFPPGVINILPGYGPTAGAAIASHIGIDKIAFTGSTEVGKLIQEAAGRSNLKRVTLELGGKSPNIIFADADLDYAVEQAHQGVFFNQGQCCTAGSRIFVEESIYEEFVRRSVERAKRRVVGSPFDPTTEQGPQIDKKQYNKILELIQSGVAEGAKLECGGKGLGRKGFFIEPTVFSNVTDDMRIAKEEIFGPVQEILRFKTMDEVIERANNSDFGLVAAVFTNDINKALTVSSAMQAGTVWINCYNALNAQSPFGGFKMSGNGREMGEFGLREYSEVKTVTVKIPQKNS
The data set can be described thus: Recombinant enzyme activity assay. The note with it: for pIC50: recombinant activity assay (Table 1), read-out: IC50 molecular, human ALDH1A2. It is filed as biochemical. On the procedure: (§1) Human and mouse ALDH enzymes were cloned from respective reference RNA, constructed into plasmids using restriction enzyme cloning and confirmed by Sanger Sequencing. Genes were cloned into a vector containing the T7 promoter for bacterial expression and into a lentiviral expression vector for cell line expression as previously described.[78] Recombinant protein was isolated by inducing BL21-DE3 E. coli (Thermo Fisher) containing the respective plasmid for 20 h at room temperature, shaking, with 300 μM IPTG (Selleck Chem). Cell disruption was achieved via ultrasonication (Φ10, 3s on/6s off, 25min) in 1L of amplified bacterial culture. The target protein was then purified using Ni NTA beads 6FF affinity chromatography. Lysis buffer consisted of 50 mM Na2HPO4, 300 mM NaCl, 1 mM β-ME, pH7.5. The column (2 mL) was washed with 50 mM Na2HPO4, 300 mM NaCl, 1 mM β-ME, 20 mM Imidazole, pH7.5. Elution was performed using 3 mL of 50 mM Na2HPO4, 300 mM NaCl, 1 mM β-ME, 250 mM Imidazole, pH7.5. Following affinity chromatography, the protein underwent further purification via Gel filtration chromatography using a Superdex200 column. Aliquots were quality controlled against a pure internal standard enzyme and/or by western blot to confirm enzyme expression. Purified enzyme was used for biochemical and biophysical assays.
(§2) For the recombinant enzyme activity assay, enzyme aliquots were thawed on ice for 4 h prior to analysis and the protocol was performed as described[8] with the following key changes: 1) Final concentrations of NAD+ (Gold Bio) were 200 μM and BSA were 1 mg/mL 2) Propanaldehyde was used as the substrate for ALDH1A1 and ALDH2. 3) Reaction velocity was monitored through diaphorase (clostridium) coupled reduction of resazurin (100 μM) monitored with ex/em of 560nm/590 nm in order to regenerate NAD+ and thus maintain constant cofactor concentration as well as to avoid high absorbance values of many screening compounds at the NADH absorbance. Assays were conducted at room temperature (controlled to 21-23C) and all buffers were maintained at pH 7.5. For all reactions, pre-incubation time was approximately 2 min while the reaction monitoring was performed over 10 min.

Data set [2] addresses T2, human ALDH2 (Homo sapiens, UniProt P05091).
T2 construct: made in house; host or cells: BL21-DE3 E. coli
As to the kind of experiment: Recombinant enzyme activity assay. It is filed as biochemical. The conditions noted are these: dose titration. On the procedure: as §1, §2

Data set [3] addresses T3, mouse ALDH1A2 (Mus musculus, UniProt Q62148).
T3 construct: made in house; host or cells: BL21-DE3 E. coli
The data set can be described thus: Recombinant enzyme activity assay. In kind it is biochemical. The conditions noted are these: recombinant activity assay (Table 1); read-out: IC50 molecular, mouse ALDH1A2. The protocol: as §1, §2

The target in data set [4] is T4, mouse ALDH1A3 (Mus musculus, UniProt Q9JHW9).
T4 construct: made in house; host or cells: BL21-DE3 E. coli
T4 sequence (Q9JHW9 1-512): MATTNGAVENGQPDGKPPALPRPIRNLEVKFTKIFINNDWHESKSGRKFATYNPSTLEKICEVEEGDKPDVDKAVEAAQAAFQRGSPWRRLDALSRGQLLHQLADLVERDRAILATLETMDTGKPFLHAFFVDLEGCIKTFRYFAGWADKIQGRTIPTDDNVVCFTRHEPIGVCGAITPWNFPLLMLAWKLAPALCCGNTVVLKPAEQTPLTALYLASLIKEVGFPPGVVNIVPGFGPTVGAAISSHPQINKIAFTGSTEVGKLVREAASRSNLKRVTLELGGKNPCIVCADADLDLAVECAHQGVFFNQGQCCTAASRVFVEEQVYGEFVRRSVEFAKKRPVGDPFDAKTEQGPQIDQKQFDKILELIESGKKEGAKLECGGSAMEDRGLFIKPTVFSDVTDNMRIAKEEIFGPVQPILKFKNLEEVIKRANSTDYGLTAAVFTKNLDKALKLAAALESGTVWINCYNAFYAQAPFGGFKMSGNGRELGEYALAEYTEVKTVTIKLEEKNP
The data set can be described thus: Recombinant enzyme activity assay. In kind it is biochemical. On the procedure: as §1, §2

A short description of data set [5]: Microsomal stability (human). The note with it: microsomes, read-out: Microsomal T1/2 (human). It is filed as in vitro ADME.
Data set [6] in a line: Microsomal stability (mouse). In kind it is in vitro ADME. The conditions noted are these: microsomes, read-out: Microsomal T1/2 (mouse).
Data set [7] in a line: Protein binding (human). It is filed as in vitro ADME. The note with it: plasma. The text has this: Table 1 Physiochemical, biochemical, and metabolic profile of lead compounds MBE1 and MBE1.5 | column: MBE1; MBE1.5
In data set [8] the target is T5, ALDH1A3 (Homo sapiens, UniProt P47895).
T5 sequence (P47895 1-512): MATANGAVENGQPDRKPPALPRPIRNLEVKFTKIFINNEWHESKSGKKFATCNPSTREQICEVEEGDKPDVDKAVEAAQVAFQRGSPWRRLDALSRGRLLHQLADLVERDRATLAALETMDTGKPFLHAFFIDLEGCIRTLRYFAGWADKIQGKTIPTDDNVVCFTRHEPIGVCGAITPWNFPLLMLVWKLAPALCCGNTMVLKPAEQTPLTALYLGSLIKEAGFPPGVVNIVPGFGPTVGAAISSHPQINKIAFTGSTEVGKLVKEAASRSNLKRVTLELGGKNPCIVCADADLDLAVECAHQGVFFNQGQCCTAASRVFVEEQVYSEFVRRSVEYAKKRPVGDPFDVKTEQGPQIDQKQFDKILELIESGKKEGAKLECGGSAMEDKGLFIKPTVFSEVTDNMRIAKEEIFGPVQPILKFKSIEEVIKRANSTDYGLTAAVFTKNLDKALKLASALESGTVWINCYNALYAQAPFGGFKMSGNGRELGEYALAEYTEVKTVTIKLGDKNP
The data set can be described thus: Microscale thermophoresis (MST) binding. More on the design: made in house; host or cells: BL21-DE3 E. coli. The note with it: biophysical assay (Table 1).

T2 sequence (P05091 18-517): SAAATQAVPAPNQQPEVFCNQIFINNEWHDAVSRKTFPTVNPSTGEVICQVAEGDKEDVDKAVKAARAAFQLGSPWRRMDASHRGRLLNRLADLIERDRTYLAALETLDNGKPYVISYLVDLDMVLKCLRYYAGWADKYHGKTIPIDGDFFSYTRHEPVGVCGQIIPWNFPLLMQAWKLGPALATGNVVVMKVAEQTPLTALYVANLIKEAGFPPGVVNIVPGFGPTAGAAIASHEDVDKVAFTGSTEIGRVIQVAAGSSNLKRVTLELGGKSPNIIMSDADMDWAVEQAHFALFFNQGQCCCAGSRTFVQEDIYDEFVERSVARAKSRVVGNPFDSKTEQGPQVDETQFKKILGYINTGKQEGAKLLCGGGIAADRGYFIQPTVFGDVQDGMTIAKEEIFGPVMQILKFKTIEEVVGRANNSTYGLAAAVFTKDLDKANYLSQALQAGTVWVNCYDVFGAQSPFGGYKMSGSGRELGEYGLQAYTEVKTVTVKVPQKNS
T3 sequence (Q62148 whole entry): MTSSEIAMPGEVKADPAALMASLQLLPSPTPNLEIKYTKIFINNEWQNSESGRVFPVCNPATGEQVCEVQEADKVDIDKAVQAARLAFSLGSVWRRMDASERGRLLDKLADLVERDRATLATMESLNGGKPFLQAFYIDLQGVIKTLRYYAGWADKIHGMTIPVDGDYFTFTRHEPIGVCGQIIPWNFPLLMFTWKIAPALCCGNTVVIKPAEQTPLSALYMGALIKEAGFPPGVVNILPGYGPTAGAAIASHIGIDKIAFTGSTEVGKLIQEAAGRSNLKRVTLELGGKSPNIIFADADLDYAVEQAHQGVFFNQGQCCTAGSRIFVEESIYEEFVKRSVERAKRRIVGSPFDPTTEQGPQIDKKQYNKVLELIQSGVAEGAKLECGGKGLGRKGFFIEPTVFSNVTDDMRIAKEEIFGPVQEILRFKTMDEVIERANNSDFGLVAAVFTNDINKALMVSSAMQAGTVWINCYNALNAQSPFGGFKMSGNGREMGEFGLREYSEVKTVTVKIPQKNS

As to `CCc1cnccc1C(=O)Nc1cc2c(cc1F)NC(=O)CC2` [MBE1, 3-ethyl-N-(7-fluoro-2-oxo-3,4-dihydro-1H-quinolin-6-yl)pyridine-4-carboxamide], in data set [1] (biochemical inhibition of each isoform), the “fold lower affinity for ALDH1A2 than for ALDH1A3” value was 4 fold. The pIC50 in data set [1] was 5.48; in data set [3], 5.48; in data set [4] (dose titration, substrate competition assay, recombinant mouse ALDH1A3, 4-parameter equation, read-out: muALDH1A3 IC50), 6.68. Further, the “inhibitory activity against ALDH2 (in words)” value in data set [2] is reported as “no inhibition”. For the same compound, the half-life was over 2.42 h in data set [5] and 0.727 h in data set [6]. This compound also gave a fraction unbound in data set [7] of 0.527. In addition, the pKd in data set [8] was 7.14.
For the compound `CCc1ccccc1C(=O)Nc1cc2c(cc1F)NC(=O)CC2` [MBE1.5, 2-ethyl-N-(7-fluoro-2-oxo-3,4-dihydro-1H-quinolin-6-yl)benzamide], the “inhibitory activity against ALDH1A2 (in words)” value in data set [1] (dose titration, up to 10 μM) is given as “minimal inhibition”. For the same compound, the pIC50 was 5.30 in data set [1]; 5.40 in data set [3]; 6.83 in data set [4] (recombinant activity assay (Table 1), read-out: IC50 molecular, mouse ALDH1A3). Besides, the “inhibitory activity against ALDH2 (in words)” value in data set [2] was “no inhibition”. For the same compound, the figures for the half-life in data set [5] and in data set [6] were over 2.42 h and 1.87 h, respectively. The same compound showed a fraction unbound in data set [7] of 0.137. The pKd in data set [8] was 7.38.
